Patent US20240400584A1, “COMPOUNDS AND METHODS FOR MODULATING SPLICING” (REMIX THERAPEUTICS INC., priority 2021, published 2024)

Legend:
MYB [1] = experiment: RT-qPCR splicing assay, MYB AJ/CJ mRNA; type: cell-based; conditions: Homo sapiens, A673 or K562 cells, 24 hours; for IC50: decrease in canonical junction mRNA; for AC50: increase in alternative junction mRNA
Method in brief: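 A673 or K562 cells were treated for 24 h at 37° C with an 11-point 3-fold compound series (top 10 uM, DMSO ≤0.25%). Lysates underwent RT-qPCR for the canonical (CJ) and alternative-exon (AJ) junctions, normalized to GAPDH, GUSB or PPIA, then to DMSO (ΔΔCt), giving RQ and percentage response.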

MYB [2] = experiment: Gene panel canonical junction qPCR assay, MYB CJ mRNA (Table 7); type: cell-based; conditions: Homo sapiens, read-out: MYB CJ mRNA decrease IC50
Method in brief: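 IC50 values reflect compound concentration giving 50% reduction in canonical exon–exon junction mRNA. Cell lysates from A673 or K562 treatments were reverse-transcribed and probed by junction-spanning qPCR, normalized to a housekeeper and vehicle, then fitted to a 4-parameter logistic equation.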

## Cc1cnc(-c2ccc3c(c2)COc2nc(N(C)[C@@H]4C[C@H]5CC[C@@H](C4)N5)ccc2-3)o1 [Compound 206]
MYB [1]
  IC50: 100 to 1000 nM
  AC50: 1000 to 10000 nM
MYB [2]
  IC50: 100 to 1000 nM

## CN(c1ccc2c(n1)COc1cc(-c3cn[nH]c3)ccc1-2)[C@@H]1C[C@H]2CC[C@@H](C1)N2 [Compound 121]
MYB [1]
  IC50: 1000 to 10000 nM
  AC50: 1000 to 10000 nM
MYB [2]
  IC50: 1000 to 10000 nM

## Cc1ncc(-c2ccc3c(c2)COc2nc(O[C@@H]4C[C@H]5C[C@@H](C4)N5)ccc2-3)s1 [Compound 208]
MYB [1]
  IC50: 100 to 1000 nM
  AC50: 100 to 1000 nM
MYB [2]
  IC50: 100 to 1000 nM

## C[C@H]1C[C@H](N(C)c2ccc3c(c2)OCc2cc(-c4cn[nH]c4)ccc2-3)CCN1 [Compound 102]
MYB [1]
  IC50: > 10000 nM
  AC50: 1000 to 10000 nM
MYB [2]
  IC50: > 10000 nM

## CN(c1ccc2c(c1)OCc1cc(-c3cn[nH]c3)ccc1-2)[C@@H]1C[C@H]2CC[C@@H](C1)N2 [Compound 104]
MYB [1]
  IC50: > 10000 nM
  AC50: > 10000 nM
MYB [2]
  IC50: > 10000 nM

## COc1cc(-c2ccc3c(c2)COc2nc(O[C@@H]4C[C@H]5COC[C@@H](C4)N5)ccc2-3)cnn1 [Compound 290, (exo)-7-{[8-(6-methoxypyridazin-4-yl)-6H-isochromeno[3,4-b]pyridin-3-yl]oxy}-3-oxa-9-azabicyclo[3.3.1]nonane]
MYB [1]
  IC50: 100 to 1000 nM
  AC50: 100 to 1000 nM
MYB [2]
  IC50: 100 to 1000 nM

## CN(c1ccc2c(n1)COc1cc(-n3cccn3)ccc1-2)C1CC(C)(C)NC(C)(C)C1 [Compound 125]
MYB [1]
  IC50: > 10000 nM
  AC50: > 10000 nM
MYB [2]
  IC50: > 10000 nM

## CN(c1ccc2c(n1)OCc1cc(-n3ccnn3)ccc1-2)[C@@H]1C[C@H]2CC[C@@H](C1)N2 [Compound 152]
MYB [1]
  IC50: 100 to 1000 nM
  AC50: 100 to 1000 nM
MYB [2]
  IC50: 100 to 1000 nM

## CN(c1ccc2c(n1)OCc1cc(-c3ccn(C)c(=O)c3)ccc1-2)[C@@H]1C[C@H]2CC[C@@H](C1)N2 [Compound 153]
MYB [1]
  IC50: 100 to 1000 nM
  AC50: < 100 nM
MYB [2]
  IC50: 100 to 1000 nM

## C[C@@H]1C[C@H](N(C)c2ccc3c(c2)OCc2cc(-c4cn[nH]c4)ccc2-3)CCN1 [Compound 101]
MYB [1]
  IC50: > 10000 nM
  AC50: 1000 to 10000 nM
MYB [2]
  IC50: > 10000 nM

## CN(c1ccc2c(n1)CCOc1cc(-n3cccn3)ccc1-2)C1CC(C)(C)NC(C)(C)C1 [Compound 129]
MYB [1]
  IC50: > 10000 nM
  AC50: > 10000 nM
MYB [2]
  IC50: > 10000 nM

## CN(c1ccc2c(n1)OCc1cc(-c3cnn(C)c(=O)c3)ccc1-2)[C@@H]1C[C@H]2CC[C@@H](C1)N2 [Compound 160]
MYB [1]
  IC50: 100 to 1000 nM
  AC50: < 100 nM
MYB [2]
  IC50: 100 to 1000 nM

## c1cc2c(cc1-c1cn[nH]c1)COc1nc(N[C@@H]3C[C@H]4CC[C@@H](C3)N4)cnc1-2 [Compound 143]
MYB [1]
  IC50: 100 to 1000 nM
  AC50: 1000 to 10000 nM
MYB [2]
  IC50: 100 to 1000 nM

## Cc1ncc(-c2ccc3c(c2)COc2nc(N(C)[C@@H]4C[C@H]5CC[C@@H](C4)N5)ccc2-3)o1 [Compound 155]
MYB [1]
  IC50: 100 to 1000 nM
  AC50: 100 to 1000 nM
MYB [2]
  IC50: 100 to 1000 nM

## CN(c1cnc2c(n1)OCc1cc(-c3cn[nH]c3)ccc1-2)C1CC(C)(C)NC(C)(C)C1 [Compound 142]
MYB [1]
  IC50: 100 to 1000 nM
  AC50: 1000 to 10000 nM
MYB [2]
  IC50: 100 to 1000 nM

## Cc1cn(-c2ccc3c(c2)COc2nc(N(C)[C@@H]4C[C@H]5CC[C@@H](C4)N5)ccc2-3)cn1 [Compound 164]
MYB [1]
  IC50: 100 to 1000 nM
  AC50: 100 to 1000 nM
MYB [2]
  IC50: 100 to 1000 nM

## CN(c1ccc2c(n1)OCc1cc(-c3cn[nH]c3)ccc1-2)C1CC(C)(C)NC(C)(C)C1 [Compound 147]
MYB [1]
  IC50: 1000 to 10000 nM
  AC50: 1000 to 10000 nM
MYB [2]
  IC50: 1000 to 10000 nM

## COc1cc(-c2ccc3c(c2)COc2nc(N4CCC(NC5(C)CCC5)C4)ccc2-3)cnn1 (stereo not drawn) [Compound 285, 1-[8-(6-methoxypyridazin-4-yl)-6H-isochromeno[3,4-b]pyridin-3-yl]-N-(1-methylcyclobutyl)pyrrolidin-3-amine]
MYB [1]
  IC50: 100 to 1000 nM
  AC50: 100 to 1000 nM
MYB [2]
  IC50: 100 to 1000 nM

## COc1cc(-c2ccc3c(c2)COc2nc(N4CCC(N5CCCC5)C4)ccc2-3)cnn1 (stereo not drawn) [Compound 305]
MYB [1]
  IC50: 1000 to 10000 nM
  AC50: 1000 to 10000 nM
MYB [2]
  IC50: 1000 to 10000 nM

## CC1(C)CC(Nc2ccc3c(c2)COc2cc(-n4cccn4)ccc2-3)CC(C)(C)N1 [Compound 118]
MYB [1]
  IC50: > 10000 nM
  AC50: > 10000 nM
MYB [2]
  IC50: > 10000 nM

## CN(c1cnc2c(n1)OCc1cc(-c3cn[nH]c3)ccc1-2)[C@@H]1C[C@H]2CC[C@@H](C1)N2 [Compound 144]
MYB [1]
  IC50: 100 to 1000 nM
  AC50: 100 to 1000 nM
MYB [2]
  IC50: 100 to 1000 nM

## CC1(C)CC(Nc2ccc3c(n2)COc2cc(-n4cccn4)ccc2-3)CC(C)(C)N1 [Compound 134]
MYB [1]
  IC50: 1000 to 10000 nM
  AC50: > 10000 nM
MYB [2]
  IC50: 1000 to 10000 nM

## CN(c1ccc2c(n1)OCc1cc(-c3cn[nH]c3)ccc1-2)[C@@H]1C[C@H]2CC[C@@H](C1)N2 [Compound 108]
MYB [1]
  IC50: 100 to 1000 nM
  AC50: 1000 to 10000 nM
MYB [2]
  IC50: 100 to 1000 nM

## CC1(C)CC(Nc2ccc3c(n2)OCc2cc(-n4cccn4)ccc2-3)CC(C)(C)N1 [Compound 165]
MYB [1]
  IC50: 1000 to 10000 nM
  AC50: 100 to 1000 nM
MYB [2]
  IC50: 1000 to 10000 nM

## CN(c1ccc2c(n1)OCc1cc(-n3ccnc3)ccc1-2)[C@@H]1C[C@H]2CC[C@@H](C1)N2 [Compound 163]
MYB [1]
  IC50: 100 to 1000 nM
  AC50: < 100 nM
MYB [2]
  IC50: 100 to 1000 nM

## CN(c1ccc2c(n1)OCCc1cc(-c3cn[nH]c3)ccc1-2)C1CC(C)(C)NC(C)(C)C1 [Compound 145]
MYB [1]
  IC50: 1000 to 10000 nM
  AC50: > 10000 nM
MYB [2]
  IC50: 1000 to 10000 nM

## CN(c1ccc2c(n1)OCc1cc(-n3nccn3)ccc1-2)[C@@H]1C[C@H]2CC[C@@H](C1)N2 [Compound 151]
MYB [1]
  IC50: 100 to 1000 nM
  AC50: 100 to 1000 nM
MYB [2]
  IC50: 100 to 1000 nM

## CN(c1ccc2c(c1)CCOc1cc(-n3cccn3)ccc1-2)[C@@H]1C[C@H]2CC[C@@H](C1)N2 [Compound 113]
MYB [1]
  IC50: > 10000 nM
  AC50: > 10000 nM
MYB [2]
  IC50: > 10000 nM

## CC(C)Oc1cnnc(-c2ccc3c(c2)COc2nc(N4CCC(NC(C)(C)C)C4)ccc2-3)c1 (stereo not drawn) [Compound 286]
MYB [1]
  IC50: > 10000 nM
  AC50: > 10000 nM
MYB [2]
  IC50: > 10000 nM

## CN(c1ccc2c(n1)OCc1cc(-c3ccc(=O)[nH]c3)ccc1-2)[C@@H]1C[C@H]2CC[C@@H](C1)N2 [Compound 157]
MYB [1]
  IC50: 1000 to 10000 nM
  AC50: 1000 to 10000 nM
MYB [2]
  IC50: 1000 to 10000 nM

## CN(c1ccc2c(n1)OCc1cc(-c3cc(=O)n(C)cn3)ccc1-2)[C@@H]1C[C@H]2CC[C@@H](C1)N2 [Compound 162]
MYB [1]
  IC50: 100 to 1000 nM
  AC50: < 100 nM
MYB [2]
  IC50: 100 to 1000 nM

## COc1cc(-c2ccc3c(c2)COc2nc(N4CCN[C@@H](C)C4)ccc2-3)cnn1 [Compound 287]
MYB [1]
  IC50: 1000 to 10000 nM
  AC50: 1000 to 10000 nM
MYB [2]
  IC50: 1000 to 10000 nM

## CN(c1ccc2c(n1)OCc1cc(-n3cccn3)ccc1-2)C1CC(C)(C)NC(C)(C)C1 [Compound 148]
MYB [1]
  IC50: 1000 to 10000 nM
  AC50: 1000 to 10000 nM
MYB [2]
  IC50: 1000 to 10000 nM

## CN(c1ccc2c(n1)OCc1cc(-c3cn[nH]c3)ccc1-2)C1CCNCC1 [Compound 116]
MYB [1]
  IC50: 1000 to 10000 nM
  AC50: 1000 to 10000 nM
MYB [2]
  IC50: 1000 to 10000 nM

## CN(c1ccc2c(n1)OCc1cc(-c3cnc(=O)[nH]c3)ccc1-2)[C@@H]1C[C@H]2CC[C@@H](C1)N2 [Compound 161]
MYB [1]
  IC50: > 10000 nM
  AC50: > 10000 nM
MYB [2]
  IC50: > 10000 nM

## CN(c1ccc2c(n1)OCc1cc(-c3ccc(=O)n(C)c3)ccc1-2)[C@@H]1C[C@H]2CC[C@@H](C1)N2 [Compound 158]
MYB [1]
  IC50: 100 to 1000 nM
  AC50: 1000 to 10000 nM
MYB [2]
  IC50: 100 to 1000 nM

## CN(c1ccc2c(n1)COc1cc(-n3cccn3)ccc1-2)[C@@H]1C[C@H]2CC[C@@H](C1)N2 [Compound 124]
MYB [1]
  IC50: 1000 to 10000 nM
  AC50: > 10000 nM
MYB [2]
  IC50: 1000 to 10000 nM

## c1cnn(-c2ccc3c(c2)COc2nc(NC4CNC4)ccc2-3)c1 [Compound 166]
MYB [1]
  IC50: > 10000 nM
  AC50: > 10000 nM
MYB [2]
  IC50: > 10000 nM

## Cc1[nH]ncc1-c1ccc2c(c1)COc1nc(N(C)[C@@H]3C[C@H]4CC[C@@H](C3)N4)ccc1-2 [Compound 154]
MYB [1]
  IC50: 100 to 1000 nM
  AC50: < 100 nM
MYB [2]
  IC50: 100 to 1000 nM

## CN(c1ccc2c(c1)OCc1cc(-n3cccn3)ccc1-2)[C@@H]1C[C@H]2CC[C@@H](C1)N2 [Compound 105]
MYB [1]
  IC50: > 10000 nM
  AC50: > 10000 nM
MYB [2]
  IC50: > 10000 nM
